Test system: 5M7101 pancreatic adenocarcinoma cells (αvβ6+ and αvβ8-)
Assay: binding of peptide-IRDye conjugates to cultured 5M7101 cells
Format: cell-based, murine
Settings: 0.32-200 nM, 1 h, 37 °C; bound NIR fluorescence
Procedure: To assess the binding of peptide-IRDye conjugates to cells various amounts of conjugates (range 0.32-200 nM) were added to cultured cells and left to incubate for 1 h at 37 °C. After three washings, the cells were fixed and analyzed by scanning the plate with the Odyssey CLx.
A control conjugate with a cysteine in place of the peptide was also prepared in parallel. The identity of the purified products, called 5a-IRDye, 2a-IRDye, and Cys-IRDye, was confirmed by mass spectrometry analysis (Table S1). In addition, the purity and identity of 5a-IRDye was monitored by liquid chromatography–mass spectrometry (LC-MS). […]
that the product consist of a single peak at 230 and 735 nm with the expected molecular weight (purity >95%) (Figure S3A).
The simplified molecular-input line-entry system (SMILES) of 5a-, 2a-, Cys- and 5a-Scr- […]
The concentration of each conjugate was quantified by spectrophotometric analysis at 774 nm (molar absorption coefficient, 240,000 M-1, cm-1) (Figure S3B). […]
The binding of peptide-IRDye conjugates to BxPC-3, 5M7101, and HUVECs cells was analyzed as follows. […]
chloride and 1% BSA (binding buffer) for 5 min. […] Binding of conjugates to cells was quantified by scanning the plate (filled with PBS, 100 µl/well) with the Odyssey CLx (LI-COR) using the above settings, except that the scan focus offset and scan intensity were set to 4 and 8.5, respectively. […]

CC1(C)C(/C=C/C2=C(Oc3ccc(S(=O)(=O)O)cc3)C(=C\C=C3/N(CCCCCC(=O)NCCN4C(=O)CC(SC[C@H](N)C(=O)O)C4=O)c4ccc(S(=O)(=O)O)cc4C3(C)C)/CCC2)=[N+](CCCCS(=O)(=O)O)c2ccc(S(=O)(=O)[O-])cc21 (stereo partly shown) [Cys-IRDye] was tested, and the “binding of conjugate to 5M7101 cells” value was “little or no binding”.

From PMC9760430, “A stapled chromogranin A-derived peptide homes in on tumors that express αvβ6 or αvβ8 integrins” (International Journal of Biological Sciences, 2023)
